“And” between values parts separate entries of the source, which are not always exact repeats. Equal entries are not always repeated. Records with an inconclusive call do not appear. Numbered stars: 1 amine (or outer) side, 2 acyl side, 3 side chain; on linkers, the order of the positions; unused ones are H or OH. Bridge positions count the residues as written; N and C are the ends. Square brackets hold non-standard residues; d marks the D form. Peptide text beside a SMILES is read from it. I, II: the chains in the order shown. * marks the point of attachment. Actinocin(1to9) = Cc1c2oc3c(C)ccc(C(=O)[*:2])c3nc-2c(C(=O)[*:1])c(N)c1=O; X2 = CCC(=O)CC1CC(C)CC(C(=O)[*:2])N1[*:1]; NMeV = CN[CH](C(=O)O)C(C)C; X1 = CCCCCCCCC(C)C(=O)*; Aze = O=C(O)[CH]1CCN1; Aib = CC(C)(N)C(=O)O; X3 = CC(CN(C)CCO)N*; Sar = CNCC(=O)O
System: nude mice, LX-1 lung xenograft intrarenal, tumor weight T/C
Test: NCI In Vivo Anticancer Drug Screen. Data for tumor model Human Lung LX-1 Xenograft (intrarenal inoculation) in NU/NU Swiss (nude) mice
Details: endpoint: mean tumor weight change, higher = larger tumour
Procedure: The antitumor activity of compounds was measured in mice bearing transplantable tumors. Survival or tumor size were measured and the results are expressed as the measurement made in the treated group (T) divided by the measurement made in the vehicle treated control group (C). The tumor model used in this assay is Human Lung LX-1 Xenograft (intrarenal inoculation) in NU/NU Swiss (nude) mice

[1] = dose: 6.25 mg/kg/injection, schedule: Q01DX010 (sc), vehicle: saline
[2] = dose: 12.5 mg/kg/injection, schedule: Q01DX010 (sc), vehicle: saline
[3] = dose: 300.0 mg/kg/injection, schedule: Q04DX003 (sc), vehicle: saline with Tween-80
[4] = dose: 600.0 mg/kg/injection, schedule: Q04DX003 (sc), vehicle: saline with Tween-80
[5] = dose: 1200.0 mg/kg/injection, schedule: Q04DX003 (sc), vehicle: saline with Tween-80
[6] = dose: 150.0 mg/kg/injection, schedule: Q04DX003 (sc), vehicle: saline with Tween-80
[7] = dose: 1.0 mg/kg/injection, schedule: Q01DX010 (sc), vehicle: saline
[8] = dose: 100.0 mg/kg/injection, schedule: Q04DX003 (sc), vehicle: saline
[9] = dose: 200.0 mg/kg/injection, schedule: Q04DX003 (sc), vehicle: saline
[10] = dose: 100.0 mg/kg/injection, schedule: Q01DX010 (sc), vehicle: saline
[11] = dose: 25.0 mg/kg/injection, schedule: Q04DX003 (sc), vehicle: saline
[12] = dose: 50.0 mg/kg/injection, schedule: Q04DX003 (sc), vehicle: saline
[13] = dose: 50.0 mg/kg/injection, schedule: Q01DX010 (sc), vehicle: saline

C#C[C@]1(O)CC[C@H]2[C@@H]3CCc4cc(O)ccc4[C@H]3CC[C@@]21C
T/C (dose: 300.0 mg/kg/injection, schedule: Q04DX003 (sc), vehicle: Klucel (hydroxypropylcellulose) (HPC)): 70 % of control | T/C (dose: 600.0 mg/kg/injection, schedule: Q04DX003 (sc), vehicle: Klucel (hydroxypropylcellulose) (HPC)): 102 % of control | T/C (dose: 1200.0 mg/kg/injection, schedule: Q04DX003 (sc), vehicle: Klucel (hydroxypropylcellulose) (HPC)): 50 % of control | T/C (dose: 2400.0 mg/kg/injection, schedule: Q04DX003 (sc), vehicle: Klucel (hydroxypropylcellulose) (HPC)): 55 % of control

Cc1c2c(ccc3ccccc32)c[n+]2ccccc12
T/C (dose: 3.13 mg/kg/injection, schedule: Q01DX010 (sc), vehicle: saline): 59 % of control | T/C [1]: 83 % of control | T/C [2]: 38 % of control

O=C(O)C1Cc2nc[nH]c2CN1CO (stereo not drawn)
T/C [3]: 74 % of control | T/C [4]: 85 % of control | T/C [5]: 41 % of control | T/C (dose: 2400.0 mg/kg/injection, schedule: Q04DX003 (sc), vehicle: saline with Tween-80): 87 % of control

C[C@]12CC[C@H](O)CC1=CC[C@@H]1[C@@H]2CC[C@]2(C)C(=O)CC[C@@H]12
T/C [6]: 116 % of control | T/C [3]: 115 % of control | T/C [5]: 107 % of control

Nc1cccc(=O)[nH]1
T/C (dose: 300.0 mg/kg/injection, schedule: Q04DX003 (sc), vehicle: saline): 100 % of control | T/C (dose: 600.0 mg/kg/injection, schedule: Q04DX003 (sc), vehicle: saline): 110 % of control | T/C (dose: 1200.0 mg/kg/injection, schedule: Q04DX003 (sc), vehicle: saline): 105 % of control

NC(=O)c1cn(C2OC(CO)C(O)C2O)c2ncnc(N)c12 (stereo not drawn)
T/C (dose: 0.5 mg/kg/injection, schedule: Q01DX010 (sc), vehicle: saline): 74 % of control | T/C [7]: 88 % of control | T/C (dose: 2.0 mg/kg/injection, schedule: Q01DX010 (sc), vehicle: saline): 27 % of control

CC(C)NCC(O)COc1ccc(O)c(O)c1 (stereo not drawn)
T/C [8]: 104 % of control | T/C [9]: 84 % of control | T/C (dose: 400.0 mg/kg/injection, schedule: Q04DX003 (sc), vehicle: saline): 114 % of control | T/C (dose: 800.0 mg/kg/injection, schedule: Q04DX003 (sc), vehicle: saline): 54 % of control

CN1c2c(nc(N)[nH]c2=O)NCC1CCNc1ccc(C(=O)NC(CCC(=O)O)C(=O)O)cc1 (stereo not drawn)
T/C [10]: 82 % of control | T/C (dose: 200.0 mg/kg/injection, schedule: Q01DX010 (sc), vehicle: saline): 36 % of control and 41 % of control | T/C (dose: 400.0 mg/kg/injection, schedule: Q01DX010 (sc), vehicle: saline): 11 % of control and 36 % of control | T/C (dose: 800.0 mg/kg/injection, schedule: Q01DX010 (sc), vehicle: saline): 11 % of control | T/C (dose: 1600.0 mg/kg/injection, schedule: Q01DX010 (sc), vehicle: saline): 27 % of control

Nc1nc(/C=C(/O)c2ccccc2)c2ncn(C3OC(CO)C(O)C3O)c2n1 (stereo not drawn)
T/C (dose: 100.0 mg/kg/injection, schedule: Q04DX003 (sc), vehicle: distilled water + Tween-80): 111 % of control | T/C (dose: 200.0 mg/kg/injection, schedule: Q04DX003 (sc), vehicle: distilled water + Tween-80): 100 % of control | T/C (dose: 400.0 mg/kg/injection, schedule: Q04DX003 (sc), vehicle: distilled water + Tween-80): 99 % of control

C1OC1CN1CCN(CC2CO2)CC1 (stereo not drawn)
T/C (dose: 16.0 mg/kg/injection, schedule: Q01DX010 (sc), vehicle: saline): 27 % of control

ClCCCN1CCN(CCCCl)CC1
T/C (dose: 150.0 mg/kg/injection, schedule: Q04DX003 (sc), vehicle: distilled water + alcohol): 90 % of control

O=C(O)CC(NC(=O)CP(=O)(O)O)C(=O)O.[NH-]C1CCCCC1[NH-].[Pt+2] (stereo not drawn)
T/C (dose: 6.25 mg/kg/injection, schedule: Q04DX003 (sc), vehicle: dextrose): 86 % of control | T/C (dose: 12.5 mg/kg/injection, schedule: Q04DX003 (sc), vehicle: dextrose): 72 % of control | T/C (dose: 25.0 mg/kg/injection, schedule: Q04DX003 (sc), vehicle: dextrose): 54 % of control

CN=C(N)N/N=C(\C)c1ccc2c(c1)Cc1ccccc1-2
T/C [6]: 152 % of control | T/C [3]: 117 % of control | T/C [4]: 106 % of control

Brc1c(NC2=NCCN2)ccc2nccnc12
T/C [11]: 75 % of control | T/C [12]: 55 % of control | T/C [8]: 79 % of control | T/C [9]: 69 % of control

COC1=C(N)C(=O)c2nc(-c3nc(C(=O)O)c(C)c(-c4ccc(OC)c(OC)c4O)c3N)ccc2C1=O
T/C (dose: 0.13 mg/kg/injection, schedule: Q01DX010 (sc), vehicle: saline): 8 % of control | T/C (dose: 0.25 mg/kg/injection, schedule: Q01DX010 (sc), vehicle: saline): 7 % of control and -6 % of control | T/C [7]: -85 % of control

O=c1nc(Oc2ccccc2)nc2ncccn12
T/C (dose: 25.0 mg/kg/injection, schedule: Q01DX010 (sc), vehicle: saline with Tween-80): 190 % of control | T/C (dose: 50.0 mg/kg/injection, schedule: Q01DX010 (sc), vehicle: saline with Tween-80): 165 % of control | T/C (dose: 100.0 mg/kg/injection, schedule: Q01DX010 (sc), vehicle: saline with Tween-80): 118 % of control | T/C (dose: 200.0 mg/kg/injection, schedule: Q01DX010 (sc), vehicle: saline with Tween-80): 210 % of control

CCCCCCCCC(C)C(=O)N1CCCC1C(=O)N1C(CC(=O)CC)CC(C)CC1C(=O)NC(C)C(=O)NC(C)(C)C(=O)NC(C)(C)C(=O)NC(C(=O)NC(C)C(=O)NC(C)(C)C(=O)NC(C)(C)C(=O)NC(C)CN(C)CCO)C(C)CC (stereo not drawn) (X1-P[X2]A[Aib][Aib]IA[Aib][Aib]-X3; configuration not given here)
T/C (dose: 5.0 mg/kg/injection, schedule: Q04DX003 (sc), vehicle: Klucel (hydroxypropylcellulose) (HPC)): 270 % of control

C1CN(P2(N3CC3)=NP(N3CC3)(N3CC3)=NP(N3CC3)(N3CC3)=N2)CCO1 (stereo not drawn)
T/C [1]: 107 % of control | T/C [2]: 38 % of control and 43 % of control and 53 % of control | T/C (dose: 25.0 mg/kg/injection, schedule: Q01DX010 (sc), vehicle: saline): 28 % of control and 29 % of control and 31 % of control | T/C [11]: 74 % of control and 82 % of control | T/C [13]: 6 % of control and 8 % of control | T/C [12]: 23 % of control and 35 % of control | T/C [8]: 25 % of control

O=C1C(=O)c2ccccc2C(O)=C1CC=C(Cl)Cl
T/C (dose: 25.0 mg/kg/injection, schedule: Q01DX010 (sc), vehicle: water): 255 % of control | T/C (dose: 50.0 mg/kg/injection, schedule: Q01DX010 (sc), vehicle: water): 95 % of control | T/C (dose: 100.0 mg/kg/injection, schedule: Q01DX010 (sc), vehicle: water): 117 % of control | T/C (dose: 200.0 mg/kg/injection, schedule: Q01DX010 (sc), vehicle: water): 158 % of control

CC(Cc1ccc(O)cc1)NCC(O)c1ccc(O)c(O)c1 (stereo not drawn)
T/C [3]: 62 % of control | T/C [4]: 98 % of control | T/C [5]: 61 % of control

OCCN1CCN(CCCN2c3ccccc3Sc3ccc(C(F)(F)F)cc32)CC1
T/C (dose: 20.0 mg/kg/injection, schedule: Q01DX010 (sc), vehicle: saline): 69 % of control | T/C (dose: 40.0 mg/kg/injection, schedule: Q01DX010 (sc), vehicle: saline): 75 % of control

c1cc(-c2cc3ccc(C4=NCCN4)cc3[nH]2)ccc1C1=NCCN1
T/C [11]: 68 % of control | T/C [12]: 67 % of control | T/C [8]: 73 % of control

Cc1c2oc3c(C)ccc(C(=O)NC4C(=O)NC(C(C)C)C(=O)N5CCCC5C(=O)N(C)CC(=O)N(C)C(C(C)C)C(=O)OC4C)c3nc-2c(C(=O)NC2C(=O)NC(C(C)C)C(=O)N3CCC3C(=O)N(C)CC(=O)N(C)C(C(C)C)C(=O)OC2C)c(N)c1=O (stereo not drawn) (I: TV[Aze][Sar][NMeV] / II: TVP[Sar][NMeV]; ester I:1-I:C, II:1-II:C; linker I:N-II:N via Actinocin(1to9); configuration not given here)
T/C (dose: 0.25 mg/kg/injection, schedule: Q04DX003 (sc), vehicle: saline + alcohol): 58 % of control | T/C (dose: 0.5 mg/kg/injection, schedule: Q04DX003 (sc), vehicle: saline + alcohol): 44 % of control | T/C (dose: 1.0 mg/kg/injection, schedule: Q04DX003 (sc), vehicle: saline + alcohol): 29 % of control

C=C(C)C(=NC(C)(C)C)Nc1ccccc1
T/C (dose: 50.0 mg/kg/injection, schedule: Q04DX003 (sc), vehicle: saline with Tween-80): 62 % of control | T/C (dose: 200.0 mg/kg/injection, schedule: Q04DX003 (sc), vehicle: saline with Tween-80): 34 % of control

c1ccc(CN2CCOC2)cc1
T/C [13]: 81 % of control | T/C [10]: 165 % of control

— PubChem BioAssay AID264 (DTP/NCI, 2004)
